The assay concerns the target T1, human FXR (Homo sapiens, UniProt Q96RI1).
T1 construct: expressed in transfected cells; host or cells: HEK293 cells stably carrying a 5xGal4-response-element firefly luciferase reporter, transiently transfected with the pcDNA3.1-Gal4-FXR plasmid
T1 sequence (Q96RI1 262-486 limits assumed): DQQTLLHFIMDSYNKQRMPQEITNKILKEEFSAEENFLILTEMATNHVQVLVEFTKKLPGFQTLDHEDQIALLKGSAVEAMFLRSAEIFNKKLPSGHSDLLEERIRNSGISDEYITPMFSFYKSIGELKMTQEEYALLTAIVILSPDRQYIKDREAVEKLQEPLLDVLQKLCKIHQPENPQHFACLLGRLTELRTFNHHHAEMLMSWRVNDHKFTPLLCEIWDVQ
Briefly: transient human FXR/Gal4-luciferase reporter assay. The assay is classed as cell-based. The following applies: Gal4-hFXR reporter in HEK293 cells; relative to 8 μM GW-4064; read-out: FXR EC50. On the procedure:
The exemplified compounds of the present invention were tested in the transient human FXR/Gal4-luciferase reporter assay, and assay results were reported in Table 1 together with other analytical data.
A Gal4-hFXR fusion construct reporter system was used as the primary assay to characterize compound activity. A construct including 5 copies of the Gal4 promoter response element upstream of a firefly luciferase reporter cDNA was stably expressed in HEK293 cells. This reporter cell line was maintained in Dulbecco's Modified Eagle's medium (DMEM; Gibco) supplemented with 1% penicillin-streptomycin (P/S) solution, 500 μg/mL Zeocin and 10% charcoal/dextran-treated fetal bovine serum (cs-FBS) at 37° C. in a humidified 5% CO2 atmosphere. Another plasmid was constructed in which the human cytomegalovirus promoter in the pcDNA3.1 vector directs the expression of the cDNA encoding a fusion protein comprised of the DNA binding domain from the Gal4 transcription factor fused to the ligand binding domain from human FXR.
The day prior to transfection, the reporter cells in culture are detached from the plate with trypsin and plated into a T75 flask at a sufficient density to achieve approximately 90% confluence the next morning. The transfection reagents are prepared by separately diluting 25 μg of the pcDNA3.1-Gal4-FXR plasmid into 1.87 mL of Opti-MEM (Thermo-Fisher), and 40 μL of Lipofectamine 2000 (Thermo-Fisher) into 1.87 mL of Opti-MEM, and then adding the diluted DNA solution into the diluted Lipofectamine 2000 solution and incubating at room temperature for 15-20 minutes. The mixture is further diluted with 10 mL of a solution comprised of DMEM, 10% cs-FBS, and 1% P/S immediately prior to transferring to the cells. The maintenance culture media is aspirated from the cells and the final transfection mixture is added before the cells are incubated overnight at 37° C. in a humidified 5% CO2 atmosphere. This protocol can be scaled up, and the transiently transfected cells can be cryopreserved in an assay-ready format.
For compound testing, 100 nL of the compounds (serial dilutions in DMSO) are dispensed with an Echo acoustic dispenser (Labcyte) into the wells of a Corning/Costar clear bottom 384-well white plate. The transfected cells are harvested, counted, and diluted such that 10-25,000 cells in 25 μL are plated into each well of the 384-well compound assay plate. The compound-treated cells are incubated overnight at 37° C. in a humidified 5% CO2 atmosphere. The next morning 25 μL of Steady-Glo (Promega) are added to each well of the plate, the mixture is incubated for 15 min. with shaking, and luminescence is measured on an Envision (Perkin Elmer) plate reader. Background counts from cells treated with DMSO alone are subtracted from all raw counts, and the corrected values are converted to a percentage of the control response attained with 8 μM GW-4064.
Regarding `CC(C)Oc1cc(C(=O)O)nc2ccc(N3CCC4(CC3)CC(=Cc3c(-c5c(Cl)cncc5Cl)noc3C3CC3)C4)cc12` [Example 85], the EC50 (commonly the concentration giving half of the maximal effect) worked out at 3 nM.
The same measure for `O=C(O)c1cc(OC(F)F)c2cc(N3CCC4(CC3)CC(=Cc3c(-c5ccccc5C(F)(F)F)noc3C3CC3)C4)ccc2n1` [Example 86]: 10 nM.
Regarding `O=C(O)c1cc(OCC2CC2)c2cc(N3CCC4(CC3)CC(=Cc3c(-c5ccccc5OC(F)(F)F)noc3C3CC3)C4)ccc2n1` [Example 87], the EC50 stood at 34 nM.
Take `O=C(O)c1cc(F)c2nc(N3CCC4(CC3)CC(=Cc3c(-c5c(Cl)cncc5Cl)noc3C3CC3)C4)sc2c1` [Example 88]: the EC50 turned out to be 69 nM.
The same measure for `Cc1cc(C(=O)O)cc2sc(N3CCC4(CC3)CC(=Cc3c(-c5c(Cl)cncc5Cl)noc3C3CC3)C4)nc12` [Example 89]: 53 nM.
The same measure for `CC(C)Oc1cc(C(=O)O)nc2ccc(N3CCC4(CC3)CC(Cc3c(-c5ccccc5OC(F)(F)F)noc3C3CC3)C4)cc12` [Example 90]: 12 nM.
The same measure for `O=C(O)c1cc(F)c2nc(N3CCC4(CC3)CC(Cc3c(-c5ccccc5OC(F)(F)F)noc3C3CC3)C4)sc2c1` [Example 91]: 410 nM; for `O=C(O)c1cc(OCCO)c2cc(N3CCC4(CC3)CC(=Cc3c(-c5ccccc5C(F)(F)F)noc3C3CC3)C4)ccc2n1` [Example 92]: 450 nM; for `COc1cc(N2CCC3(CC2)CC(Cc2c(-c4c(Cl)cccc4Cl)noc2C2CC2)C3)ccc1OCC(=O)O` [Example 93]: 505 nM.
For the compound `O=C(O)c1cc(OCCO)c2cc(N3CCC4(CC3)CC(Cc3c(-c5ccccc5C(F)(F)F)noc3C3CC3)C4)ccc2n1` [Example 94], the EC50 is 472 nM.
The same measure for `O=C(O)c1cc(OCCO)c2cc(N3CCC4(CC3)CC(=Cc3c(-c5c(Cl)cncc5Cl)noc3C3CC3)C4)ccc2n1` [Example 95]: 200 nM.
The same measure for `CCc1cc(N2CCC3(CC2)CC(Cc2c(-c4c(Cl)cccc4Cl)noc2C2CC2)C3)ccc1OCC(=O)O` [Example 96]: 793 nM; for `COCCOc1cc(C(=O)O)nc2ccc(N3CCC4(CC3)CC(Cc3c(-c5ccccc5C(F)(F)F)noc3C3CC3)C4)cc12` [Example 97]: 73 nM.
Under `COCCOc1cc(C(=O)O)nc2ccc(N3CCC4(CC3)CC(=Cc3c(-c5ccccc5C(F)(F)F)noc3C3CC3)C4)cc12` [Example 98] stands 38 nM; under `CCOc1cc(C(=O)O)nc2ccc(N3CCC4(CC3)CC(Cc3c(-c5ccccc5C(F)(F)F)noc3C3CC3)C4)cc12` [Example 99], 17 nM; under `CCOc1cc(C(=O)O)nc2ccc(N3CCC4(CC3)CC(=Cc3c(-c5ccccc5C(F)(F)F)noc3C3CC3)C4)cc12` [Example 100], 18 nM.
In the case of `O=C(O)c1cc(OC(F)(F)F)c2nc(N3CCC4(CC3)CC(=Cc3c(-c5c(Cl)cncc5Cl)noc3C3CC3)C4)sc2c1` [Example 101], the EC50 stood at 33 nM.
Under `COc1cc2nc(N3CCC4(CC3)CC(=Cc3c(-c5c(Cl)cncc5Cl)noc3C3CC3)C4)sc2cc1C(=O)O` [Example 102] stands 157 nM.
Under `O=C(O)c1ccc2sc(N3CCC4(CC3)CC(=Cc3c(-c5c(Cl)cncc5Cl)noc3C3CC3)C4)nc2c1` [Example 103] stands 249 nM.
Under `COc1cc2nc(N3CCC4(CC3)CC(=Cc3c(-c5ccccc5C(F)(F)F)noc3C3CC3)C4)sc2cc1C(=O)O` [Example 104] stands 667 nM; under `COc1cc2nc(N3CCC4(CC3)CC(Cc3c(-c5ccccc5C(F)(F)F)noc3C3CC3)C4)sc2cc1C(=O)O` [Example 105], 228 nM; under `O=C(O)c1cc(C(F)(F)F)c2cc(N3CCC4(CC3)CC(=Cc3c(C(C5CC5)C5CC5)noc3C3CC3)C4)ccc2n1` [Example 106], 1420 nM.
With `COc1cc(C(=O)O)nc2ccc(N3CCC4(CC3)CC(=Cc3c(C(C5CC5)C5CC5)noc3C3CC3)C4)cc12` [Example 107], the EC50 stood at 1550 nM.
Under `O=C(O)c1cc(OC2CCC2)c2cc(N3CCC4(CC3)CC(=Cc3c(-c5ccccc5C(F)(F)F)noc3C3CC3)C4)ccc2n1` [Example 108] stands 4 nM; under `O=C(O)c1cc(OC2CCC2)c2cc(N3CCC4(CC3)CC(Cc3c(-c5ccccc5C(F)(F)F)noc3C3CC3)C4)ccc2n1` [Example 109], 33 nM; under `COCCOc1cc(C(=O)O)nc2ccc(N3CCC4(CC3)CC(=Cc3c(-c5ccccc5OC(F)(F)F)noc3C3CC3)C4)cc12` [Example 110], 634 nM.
The same measure for `CC(C)(C)OC(=O)N1c2ccc(N3CCC4(CC3)CC(=Cc3c(-c5ccccc5OC(F)(F)F)noc3C3CC3)C4)cc2CCC1C(=O)O` (stereo not drawn) [Example 111]: 481 nM; for `O=C(O)C1CCc2cc(N3CCC4(CC3)CC(=Cc3c(-c5ccccc5OC(F)(F)F)noc3C3CC3)C4)ccc2N1` (stereo not drawn) [Example 112]: 1030 nM.
Under `O=C(O)c1ccc2nc(N3CCC4(CC3)CC(=Cc3c(-c5ccccc5C(F)(F)F)noc3C3CC3)C4)sc2n1` [Example 113] stands 1240 nM; under `O=C(O)c1ccc2nc(N3CCC4(CC3)CC(Cc3c(-c5ccccc5C(F)(F)F)noc3C3CC3)C4)sc2n1` [Example 114], 744 nM.
In the case of `O=C(O)c1cc(OC2CCC2)c2cc(N3CCC4(CC3)CC(=Cc3c(-c5ccccc5OC(F)(F)F)noc3C3CC3)C4)ccc2n1` [Example 115], the EC50 was 64 nM.
As to `O=C(O)c1cc(OC2CCC2)c2cc(N3CCC4(CC3)CC(Cc3c(-c5ccccc5OC(F)(F)F)noc3C3CC3)C4)ccc2n1` [Example 116], the EC50 is 14 nM.
Under `COc1ccc(C(=O)O)c2ccc(N3CCC4(CC3)CC(=Cc3c(-c5ccccc5C(F)(F)F)noc3C3CC3)C4)nc12` [Example 117] stands 241 nM.
Regarding `COc1ccc(C(=O)O)c2ccc(N3CCC4(CC3)CC(Cc3c(-c5ccccc5C(F)(F)F)noc3C3CC3)C4)nc12` [Example 118], the EC50 was determined as 191 nM.
Under `COc1ccc(C(=O)O)c2ccc(N3CCC4(CC3)CC(=Cc3c(-c5c(Cl)cncc5Cl)noc3C3CC3)C4)nc12` [Example 119] stands 336 nM; under `O=C(O)c1cc(OC2CCCC2)c2cc(N3CCC4(CC3)CC(=Cc3c(-c5ccccc5C(F)(F)F)noc3C3CC3)C4)ccc2n1` [Example 120], 3 nM.
The same measure for `O=C(O)c1cc(OC2CCCC2)c2cc(N3CCC4(CC3)CC(=Cc3c(-c5ccccc5OC(F)(F)F)noc3C3CC3)C4)ccc2n1` [Example 121]: 16 nM; for `O=C(O)c1cc(OC2CCCC2)c2cc(N3CCC4(CC3)CC(Cc3c(-c5ccccc5OC(F)(F)F)noc3C3CC3)C4)ccc2n1` [Example 122]: 16 nM; for `O=C(O)c1cc(OC2CCCC2)c2cc(N3CCC4(CC3)CC(Cc3c(-c5ccccc5C(F)(F)F)noc3C3CC3)C4)ccc2n1` [Example 123]: 6 nM.
The same measure for `O=C(O)c1cc(OC2CCC2)c2cc(N3CCC4(CC3)CC(=Cc3c(-c5c(Cl)cncc5Cl)noc3C3CC3)C4)ccc2n1` [Example 124]: 14 nM.
For the compound `O=C(O)c1cc(OC2CCCC2)c2cc(N3CCC4(CC3)CC(=Cc3c(-c5c(Cl)cncc5Cl)noc3C3CC3)C4)ccc2n1` [Example 125], the EC50 is 15 nM.
Under `O=C(O)c1cc(F)c2nc(N3CCC4(CC3)CC(=Cc3c(-c5c(Cl)cccc5Cl)noc3C(F)(F)F)C4)sc2c1` [Example 126] stands 68 nM; under `O=C(O)c1cc(F)c2nc(N3CCC4(CC3)CC(=Cc3c(-c5ccncc5C(F)(F)F)noc3C3CC3)C4)sc2c1` [Example 127], 198 nM; under `O=C(O)c1cc(C(F)(F)F)c2cc(N3CCC4(CC3)CC(=Cc3c(-c5ccncc5C(F)(F)F)noc3C3CC3)C4)ccc2n1` [Example 128], 19 nM.
Under `CCOC(=O)c1cc(C(F)(F)F)c2cc(N3CCC4(CC3)CC(Cc3c(-c5ccccc5C(F)(F)F)noc3C3CC3)C4)ccc2n1` [Example 129] stands 125 nM.
